Test: molar heat capacity at constant pressure; xn = mol fraction of the nth substance listed
Conditions: 101.3 kPa, Crystal, DSC

[O-2].[O-2].[Th+4] [thorium dioxide] + [O-2].[O-2].[U+4]
molar heat capacity at constant pressure [J/K/mol]
Conditions	x1 = 0.3	x1 = 0.5	x1 = 0.6	x1 = 0.7	x1 = 0.8	x1 = 0.9	x1 = 1
300 K	73.2	70.4	67.7	66.6	66.7	65.1	62.1
310 K	73.7	71.8	69.3	67.6	67.3	66.4	61.8
320 K	75.6	72.6	70.2	68.6	67.9	67.5	62.8
330 K	75.9	73.8	71	69.3	69.1	68	63.5
340 K	76.7	75.1	71.9	69.9	69.7	69	64.2
350 K	78	76.1	72.6	70.4	70.8	70.1	65.1
360 K	78.6	76.8	73.3	70.8	72.1	71.7	65.6
370 K	78.9	77	74.5	71.4	72.3	71.7	65.9
380 K	79.8	77.5	75.1	72	72.3	72	66.8
390 K	80.2	79	75.8	72.9	74.1	73	67.3
400 K	80.8	79.3	76.4	73.9	74.8	73.8	67.7
410 K	81.3	79.6	76.8	73.8	74.8	74.4	68
420 K	81.5	80.3	77.3	75.1	75.4	74.1	68.4
430 K	82.1	81.2	77.5	75.5	75.9	74.4	68.6
440 K	82.3	81.2	77.9	75.8	76.4	74.9	68.9
450 K	83.3	82.1	78.6	75.7	76.9	76	69.6
460 K	83.7	82.2	79.4	75.8	77.2	76.2	69.8
470 K	83.9	82.8	79.5	76.2	77.5	76.7	70.1
480 K	84	83.5	80.2	76.6	77.3	77	70.2
490 K	84.5	83	80	77.9	78	77	70.5
500 K	84.9	83.8	80.7	78.1	78.8	77	70.7
510 K	85.5	84.1	80.7	77.9	78.6	78.3	70.9
520 K	85.3	84.8	81	78.3	79	78.6	71.2
530 K	85.5	84.5	81	78.4	79.6	78.6	71.4
540 K	86.4	85	81.5	78.9	79.7	78.9	71.7
550 K	86.6	85.1	82.9	79.6	80	78.9	71.9
560 K	86.7	85.8	82.8	79.8	80.2	79.1	72
570 K	86.7	86.2	82.8	80.3	80.1	79.7	72.1
580 K	87.1	85.6	83.4	80.5	80.2	79.7	72.3
590 K	87.4	86.7	83.4	80.6	80.5	79.7	72.5
600 K	88	87	83.7	80.6	80.6	79.7	72.5
610 K	87.5	86.6	84.4	80.6	80.6	79.7	72.5
620 K	88	86.9	84.8	81.2	80.6	79.9	73
630 K	88.5	87.5	84.2	81.4	81.1	80.2	73
640 K	88.7	87.2	85.1	81.5	81.1	80.5	73.3
650 K	88.9	87.3	85.1	82	80.9	80.7	73.6
660 K	89	87.6	84.9	81.8	81.6	79.7	73.5
670 K	88.9	88.3	85.8	82.3	81.9	79.7	73.6
680 K	89.4	88.2	86.4	82.4	81.5	79.7	73.6
690 K	90.2	88.2	86.4	82.4	81.6	79.9	73.4
700 K	90.4	88.6	86.4	83.3	81.7	80.2	73.8
710 K	91.2	89.5	86.4	83.3	82.2	80.5	74.5
720 K	91.9	89.2	86.7	83.3	82.4	80.7	74.5
730 K	92.2	90.1	87.3	83.3	82.7	81.2	74.6
739 K	–	–	–	–	–	–	74.7
740 K	92.9	90.4	87.7	83.3	82.7	81.4	–
750 K	93.1	91	87.8	83.6	82.7	81.3	74.6
760 K	93.5	91	89.1	83.9	82.9	81.5	75
770 K	94	91.7	89.1	84.3	82.8	81.5	75.3
780 K	94.2	91.8	89.1	84.5	83.1	81	75.3
790 K	94.3	92.3	89.1	84.9	83	81.8	75.3
800 K	94.4	92.3	89.1	84.9	83.3	81.3	75.7
810 K	95	92.7	89.8	85.3	83.1	82.3	75.7
820 K	95.3	92	90.2	85.7	83.2	82.3	75.7
830 K	95.6	92.8	89.5	86	83.3	82.3	75.9
840 K	96	92.9	90.3	86	83.5	82.3	76
850 K	96.1	93.2	90.7	86	83.6	82.3	76.1
860 K	96.1	93.4	90.7	86	83.7	83.4	76.4
870 K	96.3	93.8	90.8	86.4	84	83.9	76.1

Source: the NIST ThermoML archive (doi:10.1016/j.tca.2017.04.014)
